Laboratory results reported in patent US6693189B2, “Materials and method for treating or preventing pathogenic fungal infection” (Ariad Gene Therapeutics, Inc., priority 1996, dated 2004).
Where two headings read alike, the source gives them in different places.

What was measured:
human FKBP12 = human FKBP12 (Homo sapiens, UniProt P62942); assay: competitive fluorescence polarization (FP) FKBP binding assay; conditions: for fold loss in affinity (vs rapamycin) / fold loss in affinity (cf rapamycin): =IC50/IC50 of rapamycin; for fold loss in affinity (vs rapamycin): C24 oximes; for fold loss in affinity (cf rapamycin): C7 rapalogs
Description: Serial 10-fold dilutions of each analog were prepared in 100% ethanol in glass vials and stored on ice. All other manipulations were performed at room temperature. […] Finally, a probe solution was prepared containing 10 nM AP1491 in 0.1% ethanol/FP buffer, and 100 μl added to each well with mixing.
The plates were stored covered in the dark for approximately 30 min to permit equilibration and then the fluorescence polarization of the sample in each well read on a Jolley FPM-2 FP plate reader (Jolley Consulting and Research, Inc., Grayslake, Ill.) in accordance with the manufacturer's recommendations. The mean polarization (mP units) for each competitor concentration was usually converted to % total binding by reference to the control values and plotted (y) vs. log molar final concentration of competitor (x). Non-linear least square analysis was used to fit the curve and extract the IC50 using the following equation:
y=M1+(M4−M1)/(1+exp(M2*(M3−x)))
where M3 is the IC50. For incomplete curves the IC50 was determined by interpolation.

[1] = test system: Candida albicans clinical isolates; assay: broth macrodilution antifungal assay, C. albicans; assay type: cell-based; conditions: ratio of relative antifungal to relative immunosuppressive activity
[2] = test system: Cryptococcus neoformans clinical isolates; assay: broth macrodilution antifungal assay, Cryptococcus neoformans; assay type: cell-based; conditions: ratio of relative antifungal to relative immunosuppressive activity
[3] = test system: Aspergillus fumigatus clinical isolates; assay: broth macrodilution antifungal assay, Aspergillus fumigatus; assay type: cell-based; conditions: III = Asp fumigatus; ratio of relative antifungal to relative immunosuppressive activity
[4] = read-out: FKBP wt FP binding assay IC50, rapamycin C24 oximes, competition with fluoresceinated FK506 probe AP1491

human FKBP12, sequence (P62942 whole entry): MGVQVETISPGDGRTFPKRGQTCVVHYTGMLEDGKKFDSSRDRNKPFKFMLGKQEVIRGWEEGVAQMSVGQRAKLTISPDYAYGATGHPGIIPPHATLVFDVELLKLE

Row | Structure (SMILES) | fold loss in affinity (vs rapamycin) (human FKBP12) | IC50 (human FKBP12; [4]) | fold loss in affinity (cf rapamycin) (human FKBP12) | further results
1 | COC1CC2CCC(C)C(O)(O2)C(=O)C(=O)N2CCCCC2C(=O)OC(C(C)CC2CCC(O)C(OC)C2)CC(=NOC(C)(C)C)C(C)C=C(C)C(O)C(OC)C(=O)C(C)CC(C)C=CC=CC=C1C (stereo not drawn) [Compound 19] | >13043 | > 30000 nM | – | –
2 | COC1CC2CCC(C)C(O)(O2)C(=O)C(=O)N2CCCCC2C(=O)OC(C(C)CC2CCC(O)C(OC)C2)CC(=NOCc2ccccc2)C(C)C=C(C)C(O)C(OC)C(=O)C(C)CC(C)C=CC=CC=C1C (stereo not drawn) [Compound 12, Rapamycin (E and Z)-24-(O-benzyloxime)] | 616 | 1420 nM | – | –
3 | CCOC1C[C@@H]2CC[C@@H](C)[C@@](O)(O2)C(=O)C(=O)N2CCCC[C@H]2C(=O)O[C@H]([C@H](C)C[C@@H]2CC[C@@H](O)[C@H](OC)C2)CC(=O)[C@H](C)/C=C(\C)[C@@H](O)[C@@H](OC)C(=O)[C@H](C)C[C@H](C)/C=C/C=C/C=C/1C (stereo partly drawn) [Compound 28] | – | – | 1.6 | –
4 | CCON=C1CC(C(C)CC2CCC(O)C(OC)C2)OC(=O)C2CCCCN2C(=O)C(=O)C2(O)OC(CCC2C)CC(OC)C(C)=CC=CC=CC(C)CC(C)C(=O)C(OC)C(O)C(C)=CC1C (stereo not drawn) [Compound 7, Rapamycin (E and Z)-24-(O-ethyloxime)] | 1287 | 2960 nM | – | –
5 | CO[C@H]1C[C@@H]2CC[C@@H](C)[C@@](O)(O2)C(=O)C(=O)N2CCCC[C@H]2C(=O)O[C@H]([C@H](C)C[C@@H]2CC[C@@H](O)[C@H](OC)C2)CC(=O)[C@H](C)/C=C(\C)[C@@H](O)[C@@H](OC)C(=O)[C@H](C)C[C@H](C)/C=C/C=C/C=C/1C [rapamycin, Rapamycin] | – | – | – | AF/IS I [1]: 1; AF/IS II [2]: 1; AF/IS III [3]: 1
6 | COC1CC(CC(C)C2CC(=O)C(C)C=C(C)C(O)C(OC)C(=O)C(C)CC(C)C=CC=CC=C(C)C(c3ccc(C)s3)CC3CCC(C)C(O)(O3)C(=O)C(=O)N3CCCCC3C(=O)O2)CCC1O (stereo not drawn) [Compound 37] | – | – | 1.9 | –
7 | CO[C@H]1C[C@@H]2CC[C@@H](C)[C@@](O)(O2)C(=O)C(=O)N2CCCC[C@H]2C(=O)O[C@H]([C@H](C)C[C@@H]2CC[C@@H](O)[C@H](OC)C2)C/C(=N/OCc2ccccc2)[C@H](C)/C=C(\C)[C@@H](O)[C@@H](OC)C(=O)[C@H](C)C[C@H](C)/C=C/C=C/C=C/1C [Compound 11, Rapamycin (E and Z)-24-(O-benzyloxime)] | 3627 | – | – | IC50 (human FKBP12): 8340 nM
8 | COC1CC(CC(C)C2CC(=O)C(C)C=C(C)C(O)C(OC)C(=O)C(C)CC(C)C=CC=CC=C(C)C(c3ccc(C)s3)CC3CCC(C)C(O)(O3)C(=O)C(=O)N3CCCCC3C(=O)O2)CCC1O (stereo not drawn) [Compound 36] | – | – | 1.6 | –
9 | CCOC1C[C@@H]2CC[C@@H](C)[C@@](O)(O2)C(=O)C(=O)N2CCCC[C@H]2C(=O)O[C@H]([C@H](C)C[C@@H]2CC[C@@H](O)[C@H](OC)C2)CC(=O)[C@H](C)/C=C(\C)[C@@H](O)[C@@H](OC)C(=O)[C@H](C)C[C@H](C)/C=C/C=C/C=C/1C (stereo partly drawn) [Compound 27] | – | – | 1.1 | –
